Assay results as given in patent US20080070867A1, “2-Imidazolone and 2-Imidazolidinone Heterocyclic Inhibitors of Tyrosine Phosphatases” (Metabasis Therapeutics, Inc., priority 2005, published 2008).

Target: T1, Human recombinant PTP-1B (Homo sapiens, UniProt P18031)
T1 construct: Human recombinant PTP-1B, containing amino acids 1-321, fused to GST enzyme; GST (glutathione S-transferase)
T1 sequence (P18031 1-321): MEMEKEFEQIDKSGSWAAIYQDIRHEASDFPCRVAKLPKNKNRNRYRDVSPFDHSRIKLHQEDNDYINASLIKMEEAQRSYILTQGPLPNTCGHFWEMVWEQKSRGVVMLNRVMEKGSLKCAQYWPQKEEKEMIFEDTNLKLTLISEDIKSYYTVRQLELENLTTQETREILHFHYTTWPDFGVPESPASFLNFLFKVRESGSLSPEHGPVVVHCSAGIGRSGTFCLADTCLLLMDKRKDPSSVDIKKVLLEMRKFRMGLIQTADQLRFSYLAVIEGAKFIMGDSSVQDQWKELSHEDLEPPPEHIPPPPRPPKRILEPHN
Experiment: Assay for PTP-1B Activity (pNPP substrate)
Format: biochemical
Details: human recombinant PTP-1B (1-321) GST fusion, 2 mM pNPP, pH 7.4, 30° C., 20 min; read-out: Activity Code (IC50 range)
Procedure, shortened: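 GST-fused human PTP-1B (aa 1-321) hydrolysed 2 mM pNPP in 50 mM HEPES pH 7.4, 100 mM NaCl, 2 mM EDTA, 3 mM DTT for 20 min at 30 °C, after a 2 min compound premix. K2CO3 stopped the reaction, with pNP read at 405 nm. Initial rate was plotted against inhibitor concentration.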

IC50 [µM]	SMILES
2.5 to 25	O=c1[nH]ccn1Cc1ccc(C(F)(F)P(=O)(O)O)c(Br)c1 [Compound 87, {[2-Bromo-4-(2-oxo-2,3-dihydro-imidazol-1-ylmethyl)-phenyl]-difluoro-methyl}-phosphonic acid]
< 0.099	O=c1n(Cc2ccc(C(F)(F)P(=O)(O)O)c(Br)c2)ccn1Cc1ccc(C(F)(F)P(=O)(O)O)c(Br)c1 [Compound 88, [(2-Bromo-4-{3-[3-bromo-4-(difluoro-phosphono-methyl)-benzyl]-2-oxo-2,3-dihydro-imidazol-1-ylmethyl}-phenyl)-difluoro-methyl]-phosphonic acid]
0.25 to 2.5	O=C1N(Cc2ccccc2)CCN1Cc1ccc(C(F)(F)P(=O)(O)O)c(Br)c1 [Compound 89, {[4-(3-Benzyl-2-oxo-imidazolidin-1-ylmethyl)-2-bromo-phenyl]-difluoro-methyl}-phosphonic acid]

The next lines start with the compound.

SMILES	IC50 [µM]
CCCCCCCCCCCCCCCCOCCCOP(=O)(O)C(F)(F)c1ccc(Cn2c(-c3ccc(S(C)(=O)=O)cc3)c[nH]c2=O)cc1Br [Compound 84, ({2-Bromo-4-[5-(4-methanesulfonyl-phenyl)-2-oxo-2,3-dihydro-imidazol-1-ylmethyl]-phenyl}-difluoro-methyl)-phosphonic acid mono-(3-hexadecyloxy-propyl) ester]	2.5 to 25
O=C(O)c1ccc(Cn2ccn(Cc3ccc(C(F)(F)P(=O)(O)O)c(Br)c3)c2=O)cc1 [Compound 85, 4-{3-[3-Bromo-4-(difluoro-phosphono-methyl)-benzyl]-2-oxo-2,3-dihydro-imidazol-1-ylmethyl}-benzoic acid]	0.25 to 2.5
COC(=O)c1ccc(Cn2c(=O)n(Cc3ccc(C(F)(F)P(=O)(O)O)c(Br)c3)c3ccccc32)cc1 [Compound 86, 4-{3-[3-Bromo-4-(difluoro-phosphono-methyl)-benzyl]-2-oxo-2,3-dihydro-benzoimidazol-1-ylmethyl}-benzoic acid methyl ester]	0.25 to 2.5
